From paper PMC6335420, “The cell cycle regulator GpsB functions as cytosolic adaptor for multiple cell wall enzymes” (Nature Communications, 2019)
Where two headings read alike, the source gives them in different places. Residues, ends and D or L forms follow the SMILES beside them. *: point of attachment. X1 = CN(C)c1ccc2c(-c3ccc(N4C(=O)CC(*)C4=O)cc3C(=O)[O-])c3ccc(=[N+](C)C)cc-3oc2c1

Assays:
BsGpsB1-68 = target: T1, BsGpsB1-68 (Bacillus subtilis, UniProt P0CI74); type: binding; conditions: FP; for reduction in affinity for BsGpsB1-68: relative to wild-type peptide
T1 construct: His6 (N, cleaved yes); made in house; host or cells: E. coli BL21(DE3)
Text: 75 the BsGpsB5-64:BsPBP11-17 complex.

[1] = Circular dichroism of PBP peptides (helicity); type: physicochemical; conditions: for helical residues corresponding to helical content / α-helical content: CD, 222 nm, 4 °C, 20 mM sodium phosphate pH 7.3, 25 μM peptide; for α-helical content: average of at least four measurements
Experimental: CD spectra were recorded on a JASCO J-810 spectropolarimeter with a PTC-4235 Peltier temperature controller using 1 mm path length quartz cuvettes. For full wavelength scans a scan speed of 10 nm^−1min^−1 and a response time of 4 s were used, the final spectra were the average of at least four measurements. BsPBP1_1-32 CD spectra were recorded at 4 °C in a buffer of 20 mM sodium phosphate, pH 7.3 at a peptide concentration of 25 μM. Peptide helical contents were estimated from molar ellipticities at 222 nm using the equation helix = [θ]222 nm / (39,500(1–2.57/n))[78] where n is the number of residues in the peptide. LmPBPA1_1-15 CD spectra were analysed at 40 μM in 20 mM sodium phosphate buffer, pH 7.8, for samples containing 0, 40 and 60% trifluoroethanol (TFE). For samples containing 80% TFE, 5 mM sodium phosphate buffer, pH 7.8, was used. The CD spectra of BsGpsB1-68 proteins were measured at a concentration of 4.5 μM in a buffer of 20 mM sodium phosphate (pH 7.8) 150 mM NaCl. For thermal melt experiments, a response time of 8 s and scan rate of 1 °C^−1min^−1 were used. All thermal melts were reversible as CD spectra recorded before and after the melts in the wavelength range 200–240 nm could be superimposed.

T1 sequence (P0CI74 1-68): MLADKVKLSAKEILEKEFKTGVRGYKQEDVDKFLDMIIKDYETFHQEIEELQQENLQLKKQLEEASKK

Structure (SMILES) | helical residues corresponding to helical content [1] | α-helical content [1] [%] | reduction in affinity for BsGpsB1-68 (BsGpsB1-68) | further results
CSCC[C@H](NC(=O)[C@H](CO)NC(=O)CN)C(=O)N[C@@H](C)C(=O)N[C@@H](CC(=O)O)C(=O)N[C@@H](CCC(N)=O)C(=O)N[C@@H](Cc1ccccc1)C(=O)N[C@@H](CC(N)=O)C(=O)N[C@@H](C)C(=O)N[C@@H](CCCNC(=N)N)C(=O)N[C@@H](CCC(=O)O)C(=O)N[C@@H](C)C(=O)N[C@@H](CCCNC(=N)N)C(=O)N[C@@H](CCCNC(=N)N)C(=O)N[C@@H](CCCCN)C(=O)N[C@@H](C)C(=O)N[C@@H](CC(N)=O)C(=O)N[C@@H](CSC1CC(=O)N(c2ccc(-c3c4ccc(=[N+](C)C)cc-4oc4cc(N(C)C)ccc34)c(C(=O)[O-])c2)C1=O)C(=O)N[C@@H](CCCCN)C(=O)N[C@@H](CO)C(=O)N[C@@H](CO)C(=O)N1CCC[C@H]1C(=O)N[C@@H](CO)C(=O)N1CCC[C@H]1C(=O)N[C@@H](CCCCN)C(=O)N[C@@H](CCCCN)C(=O)NCC(=O)N[C@@H](CCCCN)C(=O)N[C@@H](CCCCN)C(=O)N[C@@H](CCCNC(=N)N)C(=O)N[C@@H](CCCCN)C(=O)N[C@@H](CCCCN)C(=O)NCC(=O)NCC(=O)O (stereo partly drawn) [TAMRA-BsPBP11-32 Ser7Ala] (H-GSMADQFNAREARRKANC(X1)KSSPSPKKGKKRKKGG-OH) | ~ 6 residues | 19 | – | reduction in affinity for BsGpsB1-68 (BsGpsB1-68; listed as BsPBP1_1-32^Ser7Ala): at least 6 fold; reduction in affinity for BsGpsB1-68 (BsGpsB1-68; listed as BsPBP11-32Ser7Ala): > 5 fold
CSCC[C@H](NC(=O)[C@H](CO)NC(=O)CN)C(=O)N[C@@H](C)C(=O)N[C@@H](CC(=O)O)C(=O)N[C@@H](CCC(N)=O)C(=O)N[C@@H](Cc1ccccc1)C(=O)N[C@@H](CC(N)=O)C(=O)N[C@@H](CO)C(=O)N[C@@H](CCCNC(=N)N)C(=O)N[C@@H](CCC(=O)O)C(=O)N1CCC[C@H]1C(=O)N[C@@H](CCCNC(=N)N)C(=O)N[C@@H](CCCNC(=N)N)C(=O)N[C@@H](CCCCN)C(=O)N[C@@H](C)C(=O)N[C@@H](CC(N)=O)C(=O)N[C@@H](CSC1CC(=O)N(c2ccc(-c3c4ccc(=[N+](C)C)cc-4oc4cc(N(C)C)ccc34)c(C(=O)[O-])c2)C1=O)C(=O)N[C@@H](CCCCN)C(=O)N[C@@H](CO)C(=O)N[C@@H](CO)C(=O)N1CCC[C@H]1C(=O)N[C@@H](CO)C(=O)N1CCC[C@H]1C(=O)N[C@@H](CCCCN)C(=O)N[C@@H](CCCCN)C(=O)NCC(=O)N[C@@H](CCCCN)C(=O)N[C@@H](CCCCN)C(=O)N[C@@H](CCCNC(=N)N)C(=O)N[C@@H](CCCCN)C(=O)N[C@@H](CCCCN)C(=O)NCC(=O)NCC(=O)O (stereo partly drawn) [TAMRA-BsPBP11-32 Ala10Pro] (H-GSMADQFNSREPRRKANC(X1)KSSPSPKKGKKRKKGG-OH) | one | 2 | – | reduction in affinity for BsGpsB1-68 (BsGpsB1-68; listed as BsPBP1_1-32^Ala10Pro): at least 6 fold; reduction in affinity for BsGpsB1-68 (BsGpsB1-68; listed as BsPBP11-32Ala10Pro): > 8 fold; secondary structure by CD (in words) ([1]; LmPBPA1 peptides 40 μM, 20 mM sodium phosphate pH 7.8, TFE 0-80% (5 mM phosphate at 80%), BsPBP1_1-32 peptides 25 μM, pH 7.3, 4 °C): mostly random coil
CSCC[C@H](NC(=O)[C@H](CO)NC(=O)CN)C(=O)N[C@@H](C)C(=O)N[C@@H](CC(=O)O)C(=O)N[C@@H](CCC(N)=O)C(=O)N[C@@H](Cc1ccccc1)C(=O)N[C@@H](CC(N)=O)C(=O)N[C@@H](CO)C(=O)N[C@@H](CCCNC(=N)N)C(=O)N[C@@H](CCC(=O)O)C(=O)N[C@@H](C)C(=O)N[C@@H](CCCNC(=N)N)C(=O)N[C@@H](CCCNC(=N)N)C(=O)N[C@@H](CCCCN)C(=O)N[C@@H](C)C(=O)N[C@@H](CC(N)=O)C(=O)N[C@@H](CSC1CC(=O)N(c2ccc(-c3c4ccc(=[N+](C)C)cc-4oc4cc(N(C)C)ccc34)c(C(=O)[O-])c2)C1=O)C(=O)N[C@@H](CCCCN)C(=O)N[C@@H](CO)C(=O)N[C@@H](CO)C(=O)N1CCC[C@H]1C(=O)N[C@@H](CO)C(=O)N1CCC[C@H]1C(=O)N[C@@H](CCCCN)C(=O)N[C@@H](CCCCN)C(=O)NCC(=O)N[C@@H](CCCCN)C(=O)N[C@@H](CCCCN)C(=O)N[C@@H](C)C(=O)N[C@@H](CCCCN)C(=O)N[C@@H](CCCCN)C(=O)NCC(=O)NCC(=O)O (stereo partly drawn) [TAMRA-BsPBP11-32 Arg28Ala] (H-GSMADQFNSREARRKANC(X1)KSSPSPKKGKKAKKGG-OH) | – | – | – | binding to BsGpsB1-68 (in words) (BsGpsB1-68): no effect on binding
CSCC[C@H](NC(=O)[C@H](CO)NC(=O)CN)C(=O)N[C@@H](C)C(=O)N[C@@H](CC(=O)O)C(=O)N[C@@H](CCC(N)=O)C(=O)N[C@@H](Cc1ccccc1)C(=O)N[C@@H](CC(N)=O)C(=O)N[C@@H](CO)C(=O)N[C@@H](CCCCN)C(=O)N[C@@H](CCC(=O)O)C(=O)N[C@@H](C)C(=O)N[C@@H](CCCNC(=N)N)C(=O)N[C@@H](CCCNC(=N)N)C(=O)N[C@@H](CCCCN)C(=O)N[C@@H](C)C(=O)N[C@@H](CC(N)=O)C(=O)N[C@@H](CSC1CC(=O)N(c2ccc(-c3c4ccc(=[N+](C)C)cc-4oc4cc(N(C)C)ccc34)c(C(=O)[O-])c2)C1=O)C(=O)N[C@@H](CCCCN)C(=O)N[C@@H](CO)C(=O)N[C@@H](CO)C(=O)N1CCC[C@H]1C(=O)N[C@@H](CO)C(=O)N1CCC[C@H]1C(=O)N[C@@H](CCCCN)C(=O)N[C@@H](CCCCN)C(=O)NCC(=O)N[C@@H](CCCCN)C(=O)N[C@@H](CCCCN)C(=O)N[C@@H](CCCNC(=N)N)C(=O)N[C@@H](CCCCN)C(=O)N[C@@H](CCCCN)C(=O)NCC(=O)NCC(=O)O (stereo partly drawn) [TAMRA-BsPBP11-32 Arg8Lys] (H-GSMADQFNSKEARRKANC(X1)KSSPSPKKGKKRKKGG-OH) | – | – | at least 5 fold | –
CSCC[C@H](NC(=O)[C@H](CO)NC(=O)CN)C(=O)N[C@@H](C)C(=O)N[C@@H](CC(=O)O)C(=O)N[C@@H](CCC(N)=O)C(=O)N[C@@H](Cc1ccccc1)C(=O)N[C@@H](CC(N)=O)C(=O)N[C@@H](CO)C(=O)N[C@@H](C)C(=O)N[C@@H](CCC(=O)O)C(=O)N[C@@H](C)C(=O)N[C@@H](CCCNC(=N)N)C(=O)N[C@@H](CCCNC(=N)N)C(=O)N[C@@H](CCCCN)C(=O)N[C@@H](C)C(=O)N[C@@H](CC(N)=O)C(=O)N[C@@H](CSC1CC(=O)N(c2ccc(-c3c4ccc(=[N+](C)C)cc-4oc4cc(N(C)C)ccc34)c(C(=O)[O-])c2)C1=O)C(=O)N[C@@H](CCCCN)C(=O)N[C@@H](CO)C(=O)N[C@@H](CO)C(=O)N1CCC[C@H]1C(=O)N[C@@H](CO)C(=O)N1CCC[C@H]1C(=O)N[C@@H](CCCCN)C(=O)N[C@@H](CCCCN)C(=O)NCC(=O)N[C@@H](CCCCN)C(=O)N[C@@H](CCCCN)C(=O)N[C@@H](CCCNC(=N)N)C(=O)N[C@@H](CCCCN)C(=O)N[C@@H](CCCCN)C(=O)NCC(=O)NCC(=O)O (stereo partly drawn) [TAMRA-BsPBP11-32 Arg8Ala] (H-GSMADQFNSAEARRKANC(X1)KSSPSPKKGKKRKKGG-OH) | – | – | at least 5 fold | –
